Results as given in patent publication US20060122264A1, “Stem cell invasion inhibitor” (Yasumi Uchida, etal, priority 2003, published 2006).
“Also recorded” adds a separate entry of the source. Marks after values point to notes of the source that are not given here.

Columns and labels:
coronary artery stenosis [1] = assay: Insertion of drug-eluting stent into coronary artery: degree of stenosis; type: in vivo, beagle dogs; settings: one month, most stenotic site of stent-inserted portion
Description: Nembutal-anesthetized beagle dogs were employed for the test. While each of the animals was ventilated with air, an 8-French guide catheter was inserted through the right common carotid artery, followed by left coronary angiography. Subsequently, a drug-eluting stent (inner layer: PLGA 7510 containing 50% phenolsulfonphthalein, outer layer: PLA 0010 containing 50% phenolsulfonphthalein) was inserted into the left circumflex branch, and then expanded at 9 atm, followed by placement of the stent. After recovery from anesthesia, the animal was bred for one month, and then was again subjected to coronary angiography. The degree of stenosis was measured at the most stenotic site of the stent-inserted portion, and the thus-measured stenosis degree was compared with that in the case of a non-eluting stent group (i.e., a group in which a stent that is not coated with a drug was inserted). Subsequently, the heart was extirpated from the animal, and then subjected to formalin fixation. Thereafter, a microscopic sample of the stent-inserted portion was prepared, followed by staining of vascular smooth muscle β-actin. Stem cells per unit area were counted at the highest-cell-density site of the intima, media, or adventitia of the above-stained sample. […]

coronary artery stenosis [2] = assay: Coronary artery stenosis after balloon angioplasty, local administration (coronary angiography, azan staining); type: in vivo, beagle dogs; settings: for stenosis as determined through coronary angiography: compared with non-administration group; for Stenosis degree (%): coronary angiography, 5% drug 0.5 mL injected locally after balloon dilation
Description: (§1) Nembutal-anesthetized beagle dogs were employed for the test. Each of the animals was endotracheally intubated, and ventilated with air. Subsequently, an 8-French sheath was inserted into the right common carotid artery. An 8-French guide catheter was inserted through the sheath, followed by coronary angiography. Subsequently, a clinically employed balloon catheter for coronary angioplasty (outer diameter: 3 mm, length: 20 mm) was inserted, and then the balloon was expanded at 9 atm, to thereby dilate a distal to intermediate portion of the anterior descending branch of the coronary artery. Through this procedure, the blood vessel wall was damaged. Subsequently, the aforementioned perforated balloon catheter equipped with an injection syringe containing 5% phenolsulfonphthalein (0.5 mL) or 5% bromosulfophthalein (0.5 mL) was guided by a guide wire and inserted into the above-dilated portion, and the phthalein compound (drug) was injected into the blood vessel wall at 3 atm. After completion of injection of the drug, the catheter was removed, and then the cervical portion through which the catheter had been inserted was sutured, followed by administration of an antibiotic. After recovery from anesthesia, the animal was cared for one week to one month, and was again subjected to coronary angiography. One week to one month later, the animal was anesthetized to stop cardiac beat and, the heart was removed from the animal, and then subjected to formalin fixation, followed by preparation of a microscopic sample of the above-dilated portion. Subsequently, the thus-prepared sample was subjected to azan staining and various immunostainings.

[3] = tested on: β-actin-positive stem cells in the coronary artery wall; assay: Prevention of stem cell invasion associated with coronary angioplasty, local administration by pored balloon catheter: stem cell count; type: in vivo, beagle dogs; settings: for stem cell density compared with the non-administration group: at all the membranes
Description: as §1
(§2) In connection with this finding, in the above-immunostained sample, stem cells per unit area (250×250 um^2) were counted at the highest-cell-density site of the intima, media, or adventitia. Comparison (in terms of the number of stem cells) was performed between drug administration groups and a non-administration group (control group) in which merely saline (0.5 mL) was injected into a portion of the coronary artery dilated with a balloon, and P<0.05 (by Student t test) was regarded as a significant difference.

[4] = tested on: Human umbilical vein endothelial cells (HUBEC); assay: Proliferation of human vascular endothelial cells; type: cell-based; settings: for number of cells after culturing for three days: Endothelial cells
Description: (§3) Human umbilical vein endothelial cells (HUBEC) (1×10^5/cm^2) were inoculated into a medium containing MCDB-104, 10% FBS, ECGF (100 ng/mL), EGF (10 ng/mL), and heparin (100 ng/mL), and phenolsulfonphthalein or bromosulfophthalein was added to the medium, followed by culturing for three days. Thereafter, the resultant cells were counted, and the number of the cells was compared with that in the case where no drug was added to the medium. In a manner similar to that described above, human coronary artery smooth muscle cells (1×10^5/cm^2) were cultured in a medium containing MCDB-104, 10% FBS, and EGF (10 ng/mL) for three days, and the resultant cells were counted.

[5] = tested on: human coronary artery smooth muscle cells; assay: Proliferation of human coronary artery smooth muscle cells; type: cell-based; settings: for number of cells after culturing for three days: Smooth muscle cells
Description: as §3

[6] = tested on: thrombus in the right common carotid artery; assay: Arterial thrombosis, carotid intima damaged by Dotter balloon catheter; type: in vivo, dogs; settings: 10 mg/kg intravenously; for Average thrombus weight: wet weight thirty minutes after intima damage
Description: Anesthetized dogs were employed for the test. Phenolsulfonphthalein or bromosulfophthalein (10 mg/kg, which is 100 times the amount clinically used for renal function testing) was intravenously administered to each of the animals, and the intima of the right common carotid artery was damaged by means of a Dotter balloon catheter. Thirty minutes later, the common carotid artery was extirpated, and the wet weight of thrombus present in the carotid artery was measured. The thus-measured wet weight was compared with that in the case of the control group.

[7] = tested on: dendritic cells in the coronary artery wall; assay: Prevention of cell invasion associated with coronary angioplasty, local administration: dendritic cell count (CD40 immunostaining); type: in vivo, beagle dogs; settings: for Number of dendritic cells (250 × 250 μm^2): 5% drug 0.5 mL injected locally after balloon dilation; for invasion of dendritic cells: CD40 antibody immunostaining
Description: as §1, §2
Dendritic cells, which are inflammatory cells, were subjected to immunostaining with a CD40 antibody.

[8] = tested on: β-actin-positive vascular stem cells in coronary artery; assay: Insertion of drug-eluting stent into coronary artery: stem cell density; type: in vivo, beagle dogs; settings: two-layer-coated drug-eluting stent (inner PLGA 7510, outer PLA 0010), one month
Description: Nembutal-anesthetized beagle dogs were employed for the test. While each of the animals was ventilated with air, an 8-French guide catheter was inserted through the right common carotid artery, followed by left coronary angiography. Subsequently, a drug-eluting stent (inner layer: PLGA 7510 containing 50% phenolsulfonphthalein, outer layer: PLA 0010 containing 50% phenolsulfonphthalein) was inserted into the left circumflex branch, and then expanded at 9 atm, followed by placement of the stent. After recovery from anesthesia, the animal was bred for one month, and then was again subjected to coronary angiography. The degree of stenosis was measured at the most stenotic site of the stent-inserted portion, and the thus-measured stenosis degree was compared with that in the case of a non-eluting stent group (i.e., a group in which a stent that is not coated with a drug was inserted). Subsequently, the heart was extirpated from the animal, and then subjected to formalin fixation. Thereafter, a microscopic sample of the stent-inserted portion was prepared, followed by staining of vascular smooth muscle β-actin. Stem cells per unit area were counted at the highest-cell-density site of the intima, media, or adventitia of the above-stained sample. Comparison (in terms of stem cell density) was performed between the drug-eluting stent group and the non-eluting stent group (i.e., the group in which a stent that is not coated with a drug was inserted).

[9] = tested on: β-actin-positive stem cells at the talc-administered site; assay: Inflammatory stenosis caused by talc at the coronary artery adventitia: stem cell density; type: in vivo, beagle dogs; settings: for Number of stem cells (250 × 250 μm^2): one month
Description: (§4) Anesthetized beagle dogs were employed for the test. While each of the animals was ventilated with air, thoracotomy was performed at the left fifth intercostal space, to thereby expose the heart. Subsequently, talc powder was administered to the vicinity of the adventitia at an intermediate portion of the anterior descending branch of the left coronary artery, which caused inflammation. Subsequently, the thoracotomy site was closed, and phenolsulfonphthalein was injected under conditions similar to those of the test described above in (A) by use of a perforated balloon equipped with an injection syringe containing the drug. After recovery from anesthesia, the animal was bred for one month, and then subjected to coronary angiography. Thereafter, the heart was extirpated from the animal, and then subjected to formalin fixation. A microscopic sample of the talc-administered portion was prepared, and the sample was subjected to β-actin staining, followed by determination of the density of β-actin-positive cells (i.e., stem cells).

[10] = tested on: stenosis at the talc-administered site; assay: Inflammatory stenosis caused by talc at the coronary artery adventitia: degree of stenosis; type: in vivo, beagle dogs
Description: as §4

[11] = Adventitia, 5% drug 0.5 mL injected locally after balloon dilation
[12] = Intima, 5% drug 0.5 mL injected locally into vessel wall after balloon dilation, per unit area at highest-cell-density site
[13] = Media, 5% drug 0.5 mL injected locally after balloon dilation

| SMILES | Stenosis degree (%) (coronary artery stenosis [1]) | stenosis as determined through coronary angiography (coronary artery stenosis [2]) | Stenosis degree (%) (coronary artery stenosis [2]) | Number of stem cells [3, 11] | Number of stem cells [3, 12] | Number of stem cells [3, 13] | stem cell density compared with the non-administration group [3] | effect of inhibiting proliferation of human vascular endothelial cells (HUBEC) [4] | number of cells after culturing for three days ([4]; Concentration (mol) 10^−4) | number of cells after culturing for three days ([4]; Concentration (mol) 10^−5) | number of cells after culturing for three days ([4]; Concentration (mol) 10^−6) | number of cells after culturing for three days ([4]; Concentration (mol) 10^−7) | number of cells after culturing for three days ([4]; Concentration (mol) 10^−8) | effect of inhibiting proliferation of vascular smooth muscle cells [5] | number of cells after culturing for three days ([5]; Concentration (mol) 10^−4) | number of cells after culturing for three days ([5]; Concentration (mol) 10^−5) | number of cells after culturing for three days ([5]; Concentration (mol) 10^−6) | number of cells after culturing for three days ([5]; Concentration (mol) 10^−7) | number of cells after culturing for three days ([5]; Concentration (mol) 10^−8) | effect of inhibiting thrombus formation (antithrombotic effect) [6] | further results |
| --- | --- | --- | --- | --- | --- | --- | --- | --- | --- | --- | --- | --- | --- | --- | --- | --- | --- | --- | --- | --- | --- |
| O=C1OC(c2ccc(O)c(S(=O)(=O)O)c2)(c2ccc(O)c(S(=O)(=O)O)c2)c2c(Br)c(Br)c(Br)c(Br)c21 [Bromosulfophthalein, bromosulfophthalein] | 11.2 ± 3.1 | significantly inhibited | 33.5 ± 10.4 | 22.0 ± 6.2* 250×250 um^2 | 14.8 ± 6.1* 250×250 um^2 | 16.1 ± 4.8 250×250 um^2 | significantly lower | no effect | 3.44 | 3.43 | 3.52 | 3.59 | 3.34 | no effect | 3.43 | 3.78 | 4.19 | 4.14 | 4.24 | no effect; also recorded: nor antithrombotic effect | Average thrombus weight [6]: 210 mg; Number of dendritic cells (250 × 250 μm^2) ([7]; Adventitia): 3.6 ± 0.9* 250 × 250 μm^2; invasion of dendritic cells [7]: inhibited; Number of dendritic cells (250 × 250 μm^2) ([7]; Intima): 1.6 ± 0.4* 250 × 250 μm^2; Number of dendritic cells (250 × 250 μm^2) ([7]; Media): 1.1 ± 0.1 250 × 250 μm^2; Number of stem cells (250 × 250 μm^2) ([8]; Adventitia): 20.3 ± 9.9* 250 × 250 μm^2; Number of stem cells (250 × 250 μm^2) ([8]; Intima): 8.8 ± 2.6** 250 × 250 μm^2; Number of stem cells (250 × 250 μm^2) ([8]; Media): 8.6 ± 5.0* 250 × 250 μm^2 |
| O=S1(=O)OC(c2ccc(O)cc2)(c2ccc(O)cc2)c2ccccc21 [Phenolsulfonphthalein, phenolsulfonphthalein] | 0 ± 0.0 | significantly inhibited | 10.1 ± 2.5 | 19.3 ± 6.3* 250×250 um^2 | 11.0 ± 4.2* 250×250 um^2 | 10.1 ± 2.8* 250×250 um^2 | significantly lower | no effect | 3.37 | 3.40 | 3.35 | 3.43 | 3.47 | no effect | 3.65 | 3.88 | 4.17 | 4.02 | 4.08 | no effect; also recorded: nor antithrombotic effect | β-actin-positive cell density compared with the non-administration group [9]: significantly lower; Number of stem cells (250 × 250 μm^2) ([9]; Adventitia): 12.2 ± 3.4* 250 × 250 μm^2; Number of stem cells (250 × 250 μm^2) ([9]; Intima): 2.0 ± 0.8* 250 × 250 μm^2; Number of stem cells (250 × 250 μm^2) ([9]; Media): 2.6 ± 0.7* 250 × 250 μm^2; stenosis due to intimal hyperplasia (FIG. 2) (coronary artery stenosis [2]; four weeks after dilation, azan staining): only slight intimal hyperplasia; also recorded: only slightly observed; cell invasion (FIG. 2) ([3]; four weeks after dilation): less observed; cell invasion from the adventitia into the intima (FIG. 1) ([3]; one week after dilation with a balloon, azan staining): virtually no cell invasion is observed; also recorded: not observed; degree of stenosis [10]: significantly lower; Stenosis degree (%) ([10]; one month, coronary angiography): 10.4 ± 2.7 %; Average thrombus weight [6]: 195 mg; Number of dendritic cells (250 × 250 μm^2) ([7]; Adventitia): 1.0 ± 0.5* 250 × 250 μm^2; invasion of dendritic cells [7]: inhibited; Number of dendritic cells (250 × 250 μm^2) ([7]; Intima): 0.2 ± 0.0* 250 × 250 μm^2; Number of dendritic cells (250 × 250 μm^2) ([7]; Media): 0.0 ± 0.0* 250 × 250 μm^2; Number of stem cells (250 × 250 μm^2) ([8]; Adventitia): 16.0 ± 7.1* 250 × 250 μm^2; Number of stem cells (250 × 250 μm^2) ([8]; Intima): 7.1 ± 3.2** 250 × 250 μm^2; Number of stem cells (250 × 250 μm^2) ([8]; Media): 9.0 ± 4.0* 250 × 250 μm^2 |
